Reference: PubChem BioAssay AID1259407 (Chemical Carcinogenesis Research Information System (CCRIS), 2018)
Active and inactive are the calls of the source. How the calls were made is not given here.

Tested on: CCRIS mutagenicity, Ames/micronucleus/aberration tests
Test: CCRIS mutagenicity studies

O=CCCCC=O
mutagenic call (End Point: IN VITRO CHROMOSOMAL ABERRATIONS, Test System: CHL CELLS, Metabolic Activation: RAT, LIVER, S-9, SODIUM PHENOBARBITAL AND 5,6-BENZOFLAVONE): active; positive (structural and ploidy changes) | mutagenic call (End Point: IN VITRO CHROMOSOMAL ABERRATIONS, Test System: SYRIAN HAMSTER EMBRYO (SHE) CELLS, Metabolic Activation: NONE): inactive; negative | mutagenic call (End Point: IN VITRO CHROMOSOMAL ABERRATIONS, Test System: SYRIAN HAMSTER EMBRYO (SHE) CELLS, Metabolic Activation: RAT, LIVER, S-9): inactive; negative | mutagenic call (End Point: In vitro micronucleus, Test System: Chinese hamster V79 cells, Metabolic Activation: None): active; positive (concentrations of 10 um and above strongly inhibited growth of cells, | mutagenic call (End Point: In vitro micronucleus, Test System: Chinese hamster V79 cells, Metabolic Activation: None, Method: FISH): inactive; positive (majority were centromer negative. authors attribute results as showing | mutagenic call (Test System: AMES SALMONELLA TYPHIMURIUM, Strain/Indicator: TA97A, Metabolic Activation: NONE, Method: STANDARD PLATE): inactive; negative | mutagenic call (Test System: AMES SALMONELLA TYPHIMURIUM, Strain/Indicator: TA98, Metabolic Activation: HAMSTER LIVER S-9, AROCLOR-1254 (10%), Method: PREINCUBATION): inactive; negative | mutagenic call (Test System: AMES SALMONELLA TYPHIMURIUM, Strain/Indicator: TA98, Metabolic Activation: NONE, Method: STANDARD PLATE): inactive; negative | mutagenic call (Test System: AMES SALMONELLA TYPHIMURIUM, Strain/Indicator: TA98, Metabolic Activation: RAT LIVER S-9, AROCLOR-1254 (10%), Method: PREINCUBATION): inactive; negative | mutagenic call (Test System: AMES SALMONELLA TYPHIMURIUM, Strain/Indicator: TA98, Metabolic Activation: RAT LIVER S-9, PHENOBARBITAL AND BETA-NAPHTHOFLAVONE, Method: PREINCUBATION): inactive; negative | mutagenic call (Test System: AMES SALMONELLA TYPHIMURIUM, Strain/Indicator: TA100, Metabolic Activation: HAMSTER LIVER S-9, AROCLOR-1254 (10%), Method: PREINCUBATION): inactive; negative | mutagenic call (Test System: AMES SALMONELLA TYPHIMURIUM, Strain/Indicator: TA100, Metabolic Activation: MOUSE LIVER S-9, AROCLOR 1254, Method: PREINCUBATION): active; positive | mutagenic call (Test System: AMES SALMONELLA TYPHIMURIUM, Strain/Indicator: TA100, Metabolic Activation: NONE, Method: STANDARD PLATE): inactive; negative | mutagenic call (Test System: AMES SALMONELLA TYPHIMURIUM, Strain/Indicator: TA100, Metabolic Activation: RAT LIVER S-9, AROCLOR 1254, Method: PREINCUBATION): active; positive | mutagenic call (Test System: AMES SALMONELLA TYPHIMURIUM, Strain/Indicator: TA100, Metabolic Activation: RAT LIVER S-9, PHENOBARBITAL AND BETA-NAPHTHOFLAVONE NONE, Method: PREINCUBATION): inactive; negative | mutagenic call (Test System: AMES SALMONELLA TYPHIMURIUM, Strain/Indicator: TA102, Metabolic Activation: MOUSE LIVER S-9, AROCLOR 1254, Method: PREINCUBATION): active; positive | mutagenic call (Test System: AMES SALMONELLA TYPHIMURIUM, Strain/Indicator: TA102, Metabolic Activation: MOUSE LIVER S-9, AROCLOR-1254 (10%), Method: PREINCUBATION): active; positive | mutagenic call (Test System: AMES SALMONELLA TYPHIMURIUM, Strain/Indicator: TA102, Metabolic Activation: NONE, Method: PREINCUBATION): active; positive | mutagenic call (Test System: AMES SALMONELLA TYPHIMURIUM, Strain/Indicator: TA102, Metabolic Activation: RAT LIVER S-9, AROCLOR 1254, Method: PREINCUBATION): active; positive | mutagenic call (Test System: AMES SALMONELLA TYPHIMURIUM, Strain/Indicator: TA102, Metabolic Activation: RAT LIVER S-9, AROCLOR-1254 (10%), Method: PREINCUBATION): active; positive | mutagenic call (Test System: AMES SALMONELLA TYPHIMURIUM, Strain/Indicator: TA104, Metabolic Activation: MOUSE LIVER S-9, AROCLOR 1254, Method: PREINCUBATION): active; positive | mutagenic call (Test System: AMES SALMONELLA TYPHIMURIUM, Strain/Indicator: TA104, Metabolic Activation: MOUSE LIVER S-9, AROCLOR-1254 (10%), Method: PREINCUBATION): active; positive | mutagenic call (Test System: AMES SALMONELLA TYPHIMURIUM, Strain/Indicator: TA104, Metabolic Activation: NONE, Method: PREINCUBATION): active; positive | mutagenic call (Test System: AMES SALMONELLA TYPHIMURIUM, Strain/Indicator: TA104, Metabolic Activation: NONE, Method: STANDARD PLATE): inactive; negative | mutagenic call (Test System: AMES SALMONELLA TYPHIMURIUM, Strain/Indicator: TA104, Metabolic Activation: RAT LIVER S-9, AROCLOR 1254, Method: PREINCUBATION): active; positive | mutagenic call (Test System: AMES SALMONELLA TYPHIMURIUM, Strain/Indicator: TA104, Metabolic Activation: RAT LIVER S-9, AROCLOR-1254 (10%), Method: PREINCUBATION): active; positive | mutagenic call (Test System: AMES SALMONELLA TYPHIMURIUM, Strain/Indicator: TA1535, Metabolic Activation: HAMSTER LIVER S-9, AROCLOR-1254 (10%), Method: PREINCUBATION): inactive; negative | mutagenic call (Test System: AMES SALMONELLA TYPHIMURIUM, Strain/Indicator: TA1535, Metabolic Activation: NONE, Method: PREINCUBATION): inactive; negative | mutagenic call (Test System: AMES SALMONELLA TYPHIMURIUM, Strain/Indicator: TA1535, Metabolic Activation: RAT LIVER S-9, AROCLOR-1254 (10%), Method: PREINCUBATION): inactive; negative | mutagenic call (Test System: AMES SALMONELLA TYPHIMURIUM, Strain/Indicator: TA1535, Metabolic Activation: RAT LIVER S-9, PHENOBARBITAL AND BETA-NAPHTHOFLAVONE NONE, Method: PREINCUBATION): inactive; negative | mutagenic call (Test System: AMES SALMONELLA TYPHIMURIUM, Strain/Indicator: TA1537, Metabolic Activation: HAMSTER LIVER S-9, AROCLOR-1254 (10%), Method: PREINCUBATION): inactive; negative | mutagenic call (Test System: AMES SALMONELLA TYPHIMURIUM, Strain/Indicator: TA1537, Metabolic Activation: NONE, Method: PREINCUBATION): inactive; negative | mutagenic call (Test System: AMES SALMONELLA TYPHIMURIUM, Strain/Indicator: TA1537, Metabolic Activation: RAT LIVER S-9, AROCLOR-1254 (10%), Method: PREINCUBATION): inactive; negative | mutagenic call (Test System: AMES SALMONELLA TYPHIMURIUM, Strain/Indicator: TA1537, Metabolic Activation: RAT LIVER S-9, PHENOBARBITAL AND BETA-NAPHTHOFLAVONE NONE, Method: PREINCUBATION): inactive; negative | mutagenic call (Test System: AMES SALMONELLA TYPHIMURIUM, Strain/Indicator: TA2638, Metabolic Activation: NONE, Method: STANDARD PLATE): active; positive | mutagenic call (Test System: AMES SALMONELLA TYPHIMURIUM, Strain/Indicator: TA2638A, Metabolic Activation: NONE, Method: STANDARD PLATE): active; positive | mutagenic call (Test System: E. COLI, Strain/Indicator: WP2 UVRA (PKM101), Metabolic Activation: NONE, Method: STANDARD PLATE): active; positive | mutagenic call (Test System: E. COLI, Strain/Indicator: WP2UVRA, Metabolic Activation: NONE, Method: PREINCUBATION): inactive; negative | mutagenic call (Test System: E. COLI, Strain/Indicator: WP2UVRA, Metabolic Activation: RAT LIVER S-9, PHENOBARBITAL AND BETA-NAPHTHOFLAVONE, Method: PREINCUBATION): inactive; negative | mutagenic call (Test System: MOUSE LYMPHOMA, Strain/Indicator: L5178Y (TRIFLUOROTHYMIDINE), Metabolic Activation: NONE, Method: SUSPENSION/PLATE): active; positive | mutagenic call (Test System: UDS RODENT HEPATOCYTES, Strain/Indicator: THY INCORP (NON-S-PHASE), Metabolic Activation: NONE, Method: AUTORADIOGRAPHY): active; positive
